According to US4965261A, “Substituted benzoxazinorifamycin derivative and antibacterial agent containing the same” (Kanegafuchi Kagaku Kogyo Kabushiki Kaisha, priority 1988, dated 1990):
≈ marks a conversion by molar mass, not a printed value.

Assays:
[1] = test system: Bacillus subtilis IFO 3134; experiment: Antibacterial activity, standard method of Japan Society of Chemotherapy (Table 2); assay type: cell-based; details: IFO3134, read-out: Minimal inhibitory concentration
Source text: (§1) Derivative No. in Table 2 corresponds to derivative No. in Table 1.

[2] = test system: Escherichia coli IFO 12734; experiment: as above; assay type: cell-based; details: IFO12734, read-out: Minimal inhibitory concentration
Source text: as §1

[3] = test system: Klebsiella pneumoniae IFO 3512; experiment: as above; assay type: cell-based; details: IFO3512, read-out: Minimal inhibitory concentration
Source text: as §1

[4] = test system: Micrococcus luteus IFO 12708; experiment: as above; assay type: cell-based; details: IFO12708, read-out: Minimal inhibitory concentration
Source text: as §1

[5] = test system: Mycobacterium smegmatis ATCC 607; experiment: as above; assay type: cell-based; details: Mycolicibacterium smegmatis, ATCC607, read-out: Minimal inhibitory concentration
Source text: as §1

[6] = test system: Staphylococcus aureus IFO 12732; experiment: as above; assay type: cell-based; details: IFO12732, read-out: Minimal inhibitory concentration
Source text: as §1

[7] = test system: Mycobacterium tuberculosis H37 Rv; experiment: Antibacterial activity against a tubercle bacillus, two-fold dilution in Kirchner liquid medium; details: Kirchner medium with 10% bovine serum, 37° C., 4 weeks
[8] = test system: Mycobacterium tuberculosis H37 Rv; experiment: Repeated treatment test of mice infected with tuberculosis, survival on fortieth day (groups of 10 mice); details: oral, 200 μg/mouse
[9] = Plasma concentration after oral administration to mice, bioassay with Micrococcus luteus IFO 12708; assay type: in vivo, ddY male mice; details: mouse, 20 mg/kg
Method: The derivatives No. 4 and No. 11 shown in Table 1 were orally administered to ddY male mice (7 weeks), respectively, in a dose of 20 mg/kg. The concentration of the test compound in the plasma was measured by a bioassay method employing Micrococcus luteus IFO 12708 as an assay bacterium according to a usual manner. The results are as follows: As for the derivative No. 4, the concentrations in the plasma after 1 hour, 3 hours, 5 hours and 8 hours from the administration were 17.0 μg/ml, 13.3 μg/ml, 14.5 μg/ml, 4.2 μg/ml, respectively. As for the derivative No. 11, the concentrations in the plasma after 1 hour, 3 hours, 5 hours and 8 hours from the administration were 17.3 μg/ml, 16.2 μg/ml, 13.8 μg/ml and 10.1 μg/ml, respectively.

SMILES	MIC [1] [µg/mL]	MIC [2] [µg/mL]	MIC [3] [µg/mL]	MIC [4] [µg/mL]	MIC [5] [µg/mL]	MIC [6] [µg/mL]	Minimal inhibitory concentration ([7]; Table 3) [µg/mL]	Survival rate [8] [%]	dead mice [8]	Minimal inhibitory concentration ([7]; Table 4) [µg/mL]	concentration at 1 h ([9]; 1 hour) [ng/mL]	concentration at 3 h ([9]; 3 hours) [ng/mL]	concentration at 5 h ([9]; 5 hours) [ng/mL]	concentration at 8 h ([9]; 8 hours) [ng/mL]
COc1c(N2CCN(CC(C)C)CC2)ccc2nc3c4c5c6c(C)c(O)c4c(=O)c(c-3oc12)NC(=O)C(C)=CC=CC(C)C(O)C(C)C(O)C(C)C(OC(C)=O)C(C)C(OC)C=COC(C)(O6)C5=O (stereo not drawn) [Derivative No. 3]	0.04 (≈ 0.0419 µM)	> 10	> 10	0.08 (≈ 0.0838 µM)	1.25 (≈ 1.31 µM)	≤ 0.02	0.017 (≈ 0.0178 µM)	–	–	–	–	–	–	–
CCCOc1c(N2CCN(CC(C)C)CC2)ccc2nc3c4c5c6c(C)c(O)c4c(=O)c(c-3oc12)NC(=O)C(C)=CC=CC(C)C(O)C(C)C(O)C(C)C(OC(C)=O)C(C)C(OC)C=COC(C)(O6)C5=O (stereo not drawn) [Derivative No. 10]	0.16 (≈ 0.163 µM)	> 10	> 10	0.16 (≈ 0.163 µM)	1.25 (≈ 1.27 µM)	0.04 (≈ 0.0407 µM)	0.07 (≈ 0.0712 µM)	–	–	–	–	–	–	–
COc1c(N2CCCC2)cc(C)c2nc3c4c5c6c(C)c(O)c4c(=O)c(c-3oc12)NC(=O)C(C)=CC=CC(C)C(O)C(C)C(O)C(C)C(OC(C)=O)C(C)C(OC)C=COC(C)(O6)C5=O (stereo not drawn) [Derivative No. 15]	0.08 (≈ 0.0891 µM)	> 10	> 10	0.04 (≈ 0.0445 µM)	1.25 (≈ 1.39 µM)	0.04 (≈ 0.0445 µM)	0.008 (≈ 0.00891 µM)	–	–	–	–	–	–	–
COc1c(N2CCCC2)ccc2nc3c4c5c6c(C)c(O)c4c(=O)c(c-3oc12)NC(=O)C(C)=CC=CC(C)C(O)C(C)C(O)C(C)C(OC(C)=O)C(C)C(OC)C=COC(C)(O6)C5=O (stereo not drawn) [Derivative No. 1]	0.16 (≈ 0.181 µM)	> 10	> 10	0.04 (≈ 0.0452 µM)	2.5 (≈ 2.83 µM)	≤ 0.02	0.017 (≈ 0.0192 µM)	–	–	–	–	–	–	–
COc1c(N2CCN(CC(C)C)CC2)cc(C)c2nc3c4c5c6c(C)c(O)c4c(=O)c(c-3oc12)NC(=O)C(C)=CC=CC(C)C(O)C(C)C(O)C(C)C(OC(C)=O)C(C)C(OC)C=COC(C)(O6)C5=O (stereo not drawn) [Derivative No. 17]	0.04 (≈ 0.0413 µM)	> 10	> 10	0.08 (≈ 0.0825 µM)	1.25 (≈ 1.29 µM)	≤ 0.02	0.07 (≈ 0.0722 µM)	100	there was not observed any dead mouse	–	–	–	–	–
CO[C@H]1/C=C/O[C@@]2(C)Oc3c(C)c(O)c4c(O)c(c(/C=N/N5CCN(C)CC5)c(O)c4c3C2=O)NC(=O)/C(C)=C\C=C\[C@H](C)[C@H](O)[C@@H](C)[C@@H](O)[C@@H](C)[C@H](OC(C)=O)[C@@H]1C [Rifampicin, reference compound]	0.08 (≈ 0.0972 µM)	> 10	5 (≈ 6.08 µM)	≤ 0.02	10 (≈ 12.2 µM)	≤ 0.02	0.6 (≈ 0.729 µM)	80	–	0.3 (≈ 0.365 µM)	–	–	–	–
CCOc1c(N2CCN(C)CC2)ccc2nc3c4c5c6c(C)c(O)c4c(=O)c(c-3oc12)NC(=O)C(C)=CC=CC(C)C(O)C(C)C(O)C(C)C(OC(C)=O)C(C)C(OC)C=COC(C)(O6)C5=O (stereo not drawn) [Derivative No. 5]	≤ 0.02	2.5 (≈ 2.7 µM)	2.5 (≈ 2.7 µM)	≤ 0.02	1.25 (≈ 1.35 µM)	≤ 0.02	0.035 (≈ 0.0378 µM)	–	–	–	–	–	–	–
COc1c(N2CCN(C)CC2)cc(C)c2nc3c4c5c6c(C)c(O)c4c(=O)c(c-3oc12)NC(=O)C(C)=CC=CC(C)C(O)C(C)C(O)C(C)C(OC(C)=O)C(C)C(OC)C=COC(C)(O6)C5=O (stereo not drawn) [Derivative No. 16]	≤ 0.02	5 (≈ 5.39 µM)	5 (≈ 5.39 µM)	≤ 0.02	1.25 (≈ 1.35 µM)	≤ 0.02	–	–	–	–	–	–	–	–
CCN1CCN(c2ccc3nc4c5c6c7c(C)c(O)c5c(=O)c(c-4oc3c2OC(C)C)NC(=O)C(C)=CC=CC(C)C(O)C(C)C(O)C(C)C(OC(C)=O)C(C)C(OC)C=COC(C)(O7)C6=O)CC1 (stereo not drawn) [Derivative No. 12]	≤ 0.02	5 (≈ 5.23 µM)	5 (≈ 5.23 µM)	≤ 0.02	1.25 (≈ 1.31 µM)	≤ 0.02	0.017 (≈ 0.0178 µM)	–	–	–	–	–	–	–
CCCOc1c(N2CCCC2)ccc2nc3c4c5c6c(C)c(O)c4c(=O)c(c-3oc12)NC(=O)C(C)=CC=CC(C)C(O)C(C)C(O)C(C)C(OC(C)=O)C(C)C(OC)C=COC(C)(O6)C5=O (stereo not drawn) [Derivative No. 9]	0.08 (≈ 0.0877 µM)	> 10	> 10	0.08 (≈ 0.0877 µM)	1.25 (≈ 1.37 µM)	0.04 (≈ 0.0439 µM)	0.035 (≈ 0.0384 µM)	–	–	–	–	–	–	–
COC1C=COC2(C)Oc3c(C)c(O)c4c(=O)c(c5oc6c(OCC(C)C)c(N7CCN(CC(C)C)CC7)ccc6nc-5c4c3C2=O)NC(=O)C(C)=CC=CC(C)C(O)C(C)C(O)C(C)C(OC(C)=O)C1C (stereo not drawn) [Derivative No. 14]	0.08 (≈ 0.0802 µM)	> 10	> 10	0.31 (≈ 0.311 µM)	0.63 (≈ 0.632 µM)	0.08 (≈ 0.0802 µM)	–	–	–	–	–	–	–	–
COC1C=COC2(C)Oc3c(C)c(O)c4c(=O)c(c5oc6c(OC(C)C)c(N7CCN(CC(C)C)CC7)ccc6nc-5c4c3C2=O)NC(=O)C(C)=CC=CC(C)C(O)C(C)C(O)C(C)C(OC(C)=O)C1C (stereo not drawn) [Derivative No. 13]	0.16 (≈ 0.163 µM)	> 10	> 10	0.16 (≈ 0.163 µM)	1.25 (≈ 1.27 µM)	0.04 (≈ 0.0407 µM)	0.07 (≈ 0.0712 µM)	100	there was not observed any dead mouse	–	–	–	–	–
CCOc1c(N2CCN(C(C)C)CC2)ccc2nc3c4c5c6c(C)c(O)c4c(=O)c(c-3oc12)NC(=O)C(C)=CC=CC(C)C(O)C(C)C(O)C(C)C(OC(C)=O)C(C)C(OC)C=COC(C)(O6)C5=O (stereo not drawn) [Derivative No. 7]	≤ 0.02	5 (≈ 5.23 µM)	5 (≈ 5.23 µM)	≤ 0.02	1.25 (≈ 1.31 µM)	≤ 0.02	0.017 (≈ 0.0178 µM)	–	–	–	–	–	–	–
COc1c(N2CCN(C)CC2)ccc2nc3c4c5c6c(C)c(O)c4c(=O)c(c-3oc12)NC(=O)C(C)=CC=CC(C)C(O)C(C)C(O)C(C)C(OC(C)=O)C(C)C(OC)C=COC(C)(O6)C5=O (stereo not drawn) [Derivative No. 2]	≤ 0.02	2.5 (≈ 2.74 µM)	2.5 (≈ 2.74 µM)	≤ 0.02	1.25 (≈ 1.37 µM)	≤ 0.02	0.15 (≈ 0.164 µM)	–	–	–	–	–	–	–
COC1C=COC2(C)Oc3c(C)c(O)c4c(=O)c(c5oc6c(OC(C)C)c(N7CCCC7)ccc6nc-5c4c3C2=O)NC(=O)C(C)=CC=CC(C)C(O)C(C)C(O)C(C)C(OC(C)=O)C1C (stereo not drawn) [Derivative No. 11]	0.08 (≈ 0.0877 µM)	> 10	> 10	0.04 (≈ 0.0439 µM)	1.25 (≈ 1.37 µM)	≤ 0.02	0.017 (≈ 0.0186 µM)	–	–	–	17300	16200	13800	10100
CCOc1c(N2CCN(CC)CC2)ccc2nc3c4c5c6c(C)c(O)c4c(=O)c(c-3oc12)NC(=O)C(C)=CC=CC(C)C(O)C(C)C(O)C(C)C(OC(C)=O)C(C)C(OC)C=COC(C)(O6)C5=O (stereo not drawn) [Derivative No. 6]	≤ 0.02	5 (≈ 5.31 µM)	2.5 (≈ 2.66 µM)	≤ 0.02	0.63 (≈ 0.669 µM)	≤ 0.02	–	–	–	0.008 (≈ 0.0085 µM)	–	–	–	–
